The values that follow come from publication PMC3095715 (Chemical biology & drug design, 2011).

The target in this experiment is human C3 (Homo sapiens, UniProt P01024). Description: Surface plasmon resonance. It counts as binding. The following applies: SPR.
human C3, sequence (P01024 23-1663): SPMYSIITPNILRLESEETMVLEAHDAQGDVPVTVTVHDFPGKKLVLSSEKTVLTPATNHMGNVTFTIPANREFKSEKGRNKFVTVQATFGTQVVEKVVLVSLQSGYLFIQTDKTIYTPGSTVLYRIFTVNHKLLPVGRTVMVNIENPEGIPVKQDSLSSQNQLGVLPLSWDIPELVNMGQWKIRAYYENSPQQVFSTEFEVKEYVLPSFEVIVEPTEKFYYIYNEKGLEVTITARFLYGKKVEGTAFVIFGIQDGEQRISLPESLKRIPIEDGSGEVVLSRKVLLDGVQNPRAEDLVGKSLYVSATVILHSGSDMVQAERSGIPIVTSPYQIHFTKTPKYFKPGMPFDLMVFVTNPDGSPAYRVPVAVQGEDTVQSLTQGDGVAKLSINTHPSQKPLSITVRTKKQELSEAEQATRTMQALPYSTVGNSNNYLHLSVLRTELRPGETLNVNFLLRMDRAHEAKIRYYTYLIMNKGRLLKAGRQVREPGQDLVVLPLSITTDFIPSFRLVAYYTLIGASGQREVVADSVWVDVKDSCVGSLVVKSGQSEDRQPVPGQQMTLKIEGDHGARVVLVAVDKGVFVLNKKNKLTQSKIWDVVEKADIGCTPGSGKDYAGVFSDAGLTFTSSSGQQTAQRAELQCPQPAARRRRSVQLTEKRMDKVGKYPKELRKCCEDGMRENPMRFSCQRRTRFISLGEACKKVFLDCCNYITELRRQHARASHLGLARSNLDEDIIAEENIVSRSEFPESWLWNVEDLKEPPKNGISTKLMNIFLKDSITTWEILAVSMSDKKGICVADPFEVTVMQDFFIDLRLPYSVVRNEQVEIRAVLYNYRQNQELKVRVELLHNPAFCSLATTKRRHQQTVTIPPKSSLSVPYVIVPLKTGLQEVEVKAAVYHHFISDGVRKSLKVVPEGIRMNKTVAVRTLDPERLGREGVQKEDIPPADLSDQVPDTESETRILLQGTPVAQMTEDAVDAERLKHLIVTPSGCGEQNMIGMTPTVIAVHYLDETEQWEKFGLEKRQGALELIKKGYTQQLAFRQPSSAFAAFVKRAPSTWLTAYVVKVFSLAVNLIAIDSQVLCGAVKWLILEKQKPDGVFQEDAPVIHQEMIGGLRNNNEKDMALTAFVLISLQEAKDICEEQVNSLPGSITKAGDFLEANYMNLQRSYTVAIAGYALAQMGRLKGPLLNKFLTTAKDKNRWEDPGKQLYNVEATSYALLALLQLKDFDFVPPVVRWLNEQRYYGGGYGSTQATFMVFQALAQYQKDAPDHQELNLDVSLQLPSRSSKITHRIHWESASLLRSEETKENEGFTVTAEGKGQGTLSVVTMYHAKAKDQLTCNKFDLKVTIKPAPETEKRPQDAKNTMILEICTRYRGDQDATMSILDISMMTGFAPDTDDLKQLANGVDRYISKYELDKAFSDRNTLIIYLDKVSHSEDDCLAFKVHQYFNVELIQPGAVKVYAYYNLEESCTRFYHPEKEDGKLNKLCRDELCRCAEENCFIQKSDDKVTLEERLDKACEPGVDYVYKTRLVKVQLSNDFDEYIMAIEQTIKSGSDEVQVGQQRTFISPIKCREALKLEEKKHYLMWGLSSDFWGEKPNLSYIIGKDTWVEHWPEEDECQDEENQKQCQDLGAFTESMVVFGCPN

Turning to “Ac-W[CVWQDWGAWRC]W-(PEG)8-K-(biotin)-NH2 (disulfide) [Peptide X]”, the “Binding to C3 (result in words)” value was “not to bind to C3”.
